Consider 16 molecules from ChEMBL document CHEMBL4411258, “Novel natural compounds from endophytic fungi with anticancer activity” (Eur J Med Chem, 2018).

One may read the IC50 as the concentration that gives 50% inhibition. High values mean weaker potency in that assay, low ones greater potency in that assay.

What all share (type): functional, cell-based
Experiment [1] relates to HepG2. Briefly: Cytotoxicity against human HepG2 cells after 72 hrs by MTT assay. To be noted: HepG2, 72 h. A general note: Tetrazolium dyes change colour on reduction, which living cells bring about.
The test system of the next experiment is A549. Briefly: Cytotoxicity against human A549 cells after 72 hrs by MTT assay. To be noted: A549, 72 h.
For another experiment, the system named is BT-549. Briefly: Cytotoxicity against human BT549 cells after 48 hrs by neutral red dye based assay. To be noted: BT-549, 48 h.
The subject of the next experiment is SK-OV-3. Briefly: Cytotoxicity against human SKOV3 cells after 48 hrs by neutral red dye based assay. To be noted: SK-OV-3, 48 h.
A further experiment relates to Raji. Briefly: Cytotoxicity against human Raji cells after 72 hrs by MTT assay.
For experiment [2], the system named is MCF7. Briefly: Cytotoxicity against human MCF7 cells after 72 hrs by MTT assay. The settings on record: MCF7, 72 h.
In the next experiment the test system is HL-60. Briefly: Cytotoxicity against human HL60 cells after 72 hrs by MTT assay. The settings on record: HL-60, 72 h.
The test system of experiment [3] is HepG2. Briefly: Cytotoxicity against human HepG2 cells after 48 hrs by sulforhodamine B assay.
The subject of another experiment is NCI-H460. Briefly: Cytotoxicity against human NCI-H460 cells after 48 hrs by sulforhodamine B assay.
Experiment [4] concerns MCF7. Briefly: Cytotoxicity against human MCF7 cells after 48 hrs by sulforhodamine B assay. (Sulforhodamine B stains cellular protein and so reports cell mass.)
The subject of another experiment is SF-268. Briefly: Cytotoxicity against human SF268 cells after 48 hrs by sulforhodamine B assay.
A further experiment relates to NCI-H446. Briefly: Cytotoxicity against human NCI-H446 cells by MTS assay.
In another experiment the test system is L5178Y. Briefly: Cytotoxicity against mouse L5178Y cells by MTT assay.

In brackets after ≈: the same amount, converted by molar mass.

On to `CC1=C2C(=C[C@H](O)C(O)=C2O)[C@H](C)[C@@H](C)O1`, for which the IC50 in the experiment on HepG2 [1] came to 35.7 µM; with A549, 23.7 µM.

With `C=C(CC[C@@H](C)[C@H]1CC=C2C3=C([C@@H](O)[C@H](OC(C)=O)[C@@]21C)[C@@]1(C)C[C@@H](O)[C@H](OC(C)=O)C(C)(C)[C@@H]1CC3)C(C)C`, the values for the IC50 in the experiment with BT-549 and with SK-OV-3 were 1.97 µg/mL (≈ 3.54 µM) and 0.16 µg/mL (≈ 0.287 µM), respectively.

As for `CCC(=O)Cc1c(OC)cc(=O)oc1C`, the IC50 lay in the range of 1 to 26.8 µg/mL (≈ 4.76 to 127 µM) in the experiment on Raji; 1 to 26.8 µg/mL in the experiment with HepG2 [1]; 1 to 26.8 µg/mL (≈ 4.76 to 127 µM) in the experiment with MCF7 [2]; 1 to 26.8 µg/mL with A549; 1 to 26.8 µg/mL (≈ 4.76 to 127 µM) with HL-60.

As for `CCC/C=C/[C@H]1C=CC(=O)[C@H](O)[C@H]1C(=O)C(C)O` (some centres not stated), the half-maximal inhibitory concentration (IC50) with HepG2 [3] (Homo sapiens, HepG2, 48 h) amounted to 46.8 µM; in the experiment on NCI-H460 (Homo sapiens, NCI-H460, 48 h), 36.4 µM; in the experiment on MCF7 [4] (Homo sapiens, MCF7, 48 h), 15.7 µM; in the experiment on SF-268 (Homo sapiens, SF-268, 48 h), 40.5 µM.

For `COc1cc(=O)oc(CO)c1[C@H](O)CO`, the IC50 with Raji fell in the range of 1 to 26.8 µg/mL (≈ 4.63 to 124 µM); with HepG2 [1] it was 1 to 26.8 µg/mL; in the experiment on MCF7 [2], 1 to 26.8 µg/mL (≈ 4.63 to 124 µM); in the experiment with A549, 1 to 26.8 µg/mL; with HL-60, 1 to 26.8 µg/mL (≈ 4.63 to 124 µM).

As for `Cc1cc(O)c(C(=O)c2c(C(=O)O)cc(O)c(O)c2O)c(O)c1`, the half-maximal inhibitory concentration (IC50) worked out at 60 µM with HepG2 [3] (Homo sapiens, HepG2, 48 h) and 70 µM in the experiment on MCF7 [4] (Homo sapiens, MCF7, 48 h).

For the molecule `COc1cc(=O)oc(CO)c1[C@H](C)O`, the IC50 in the experiment on Raji is 1 to 26.8 µg/mL (≈ 5 to 134 µM); in the experiment on HepG2 [1], 1 to 26.8 µg/mL; in the experiment on MCF7 [2] it was 1 to 26.8 µg/mL (≈ 5 to 134 µM); in the experiment on A549 it was 1 to 26.8 µg/mL; in the experiment on HL-60 it was 1 to 26.8 µg/mL (≈ 5 to 134 µM).

Take `C/C=C(\C)C(=O)[C@@H](C)c1cc(O)c2c(c1O)O[C@]1(C)CC[C@H]3O[C@@H](C(C)(C)O)CC[C@]3(C)[C@H]1C2=O`: the IC50 lay in the range of 6.4 to 42.6 µM in the experiment on HepG2 [3] (Homo sapiens, HepG2, 48 h); 6.4 to 42.6 µM in the experiment on NCI-H460 (Homo sapiens, NCI-H460, 48 h); 6.4 to 42.6 µM with MCF7 [4] (Homo sapiens, MCF7, 48 h); 6.4 to 42.6 µM in the experiment with SF-268 (Homo sapiens, SF-268, 48 h).

For `COC1=CC(=O)OC2C1[C@H](O)CO[C@H]2O` (some centres not stated), the IC50 in the experiment on Raji was in the range of 1 to 26.8 µg/mL (≈ 4.63 to 124 µM); with HepG2 [1], 1 to 26.8 µg/mL; with MCF7 [2], 1 to 26.8 µg/mL (≈ 4.63 to 124 µM); in the experiment with A549, 1 to 26.8 µg/mL; in the experiment with HL-60, 1 to 26.8 µg/mL (≈ 4.63 to 124 µM).

On to `CCC(=O)Cc1c(OC)cc(=O)oc1CO`, for which the IC50 with Raji fell in the range of 1 to 26.8 µg/mL (≈ 4.42 to 118 µM); in the experiment with HepG2 [1], 1 to 26.8 µg/mL; in the experiment on MCF7 [2], 1 to 26.8 µg/mL (≈ 4.42 to 118 µM); in the experiment on A549, 1 to 26.8 µg/mL; in the experiment on HL-60 it was 1 to 26.8 µg/mL (≈ 4.42 to 118 µM).

For `CC[C@H](C)c1[nH]c2c(c1C)C(=O)C1=C(C2=O)[C@@H](O)[C@@H]2[C@@]3(C)CC[C@H](C(C)(C)O)O[C@@H]3CC[C@@]2(C)O1`, the IC50 in the experiment with HepG2 [3] (Homo sapiens, HepG2, 48 h) fell in the range of 6.4 to 42.6 µM; in the experiment on NCI-H460 (Homo sapiens, NCI-H460, 48 h), 6.4 to 42.6 µM; in the experiment with MCF7 [4] (Homo sapiens, MCF7, 48 h), 6.4 to 42.6 µM; in the experiment with SF-268 (Homo sapiens, SF-268, 48 h) it was 6.4 to 42.6 µM.

Consider `Cc1cc2c(c3c1C(=O)Oc1c(C)c4c(c(O)c1O3)C(=O)OC4)CO2`, for which the IC50 in the experiment with NCI-H446 amounted to 63 µM.

`CC[C@H](C)C(=O)[C@@H](C)c1c(O)c2c(c3c1SCC(=O)N3)[C@@H](O)[C@@H]1[C@@]3(C)CC[C@H](C(C)(C)O)O[C@@H]3CC[C@@]1(C)O2`: the concentration for half-maximal inhibition (IC50) in the experiment on HepG2 [3] (Homo sapiens, HepG2, 48 h) is 6.4 to 42.6 µM; in the experiment on NCI-H460 (Homo sapiens, NCI-H460, 48 h) it was 6.4 to 42.6 µM; with MCF7 [4] (Homo sapiens, MCF7, 48 h) it was 6.4 to 42.6 µM; with SF-268 (Homo sapiens, SF-268, 48 h) it was 6.4 to 42.6 µM.

In the experiment with L5178Y, `COc1cc(O)c2c(c1-c1c(OC)cc(O)c3c1C(=O)C1=C(C3=O)[C@H](O)[C@@H](OC(C)=O)[C@@](C)(O)[C@@H]1O)C(=O)C1=C(C2=O)[C@H](O)[C@@H](O)[C@@](C)(O)[C@@H]1O` gave an IC50 of 10.4 µM.

With `C/C1=C\C(=O)OC[C@]23CCC(C(=O)O)=C[C@H]2O[C@@H]2CC(OC(=O)/C=C\C=C\[C@H]([C@H](C)O)OCC1)[C@@]3(C)[C@]21CO1` (some centres not stated), the IC50 in the experiment with HepG2 [3] (hepg2) came to 0.38 µM; with NCI-H460 (nci-h460), 0.36 µM; in the experiment with MCF7 [4] (mcf7), 0.17 µM; in the experiment with SF-268 (sf-268), 0.751 µM.

For the molecule `CC[C@H](C)C(=O)[C@@H](C)C1=CC(=O)C2=C(O[C@]3(C)CC[C@H]4O[C@@H](C(C)(C)O)CC[C@]4(C)C3=C2)C1=O`, the IC50 was 6.4 to 42.6 µM in the experiment on HepG2 [3] (Homo sapiens, HepG2, 48 h); 6.4 to 42.6 µM in the experiment with NCI-H460 (Homo sapiens, NCI-H460, 48 h); 6.4 to 42.6 µM with MCF7 [4] (Homo sapiens, MCF7, 48 h); 6.4 to 42.6 µM in the experiment with SF-268 (Homo sapiens, SF-268, 48 h).
